Experimental data taken from US20060004019A1, “Steroid sparing agents and methods of using same” (priority 2004, published 2006).

Experiments:
[1] = tested on: rat cardiac allografts; assay: Rat cardiac allograft study, Allograft Study 2 (Table 20); settings: for percent of surviving grafts within a group / number of surviving grafts within each group: s.c., GG5/3 3 mg/kg, compounds 30 mg/kg;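 on all read-outs here: lewis x Brown Norway F1 hearts grafted abdominally into male Lewis rats, palpated daily, rejection meaning complete loss of heartbeat, day 0 being surgery day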
Method: Hearts from Lewis X Brown Norway F1 hybrids were transplanted to the abdominal great vessels of Lewis recipients using standard microvascular techniques. Both rat strains were male inbred rats, weighing 200-300 g. Food and water was available at all times except during surgical and dosing procedures. The day of transplantation was noted as day 0. […] Allograft survival in the rats was evaluated by daily palpation of the transplanted heart through the recipient's flank. Rejection was taken as the day of complete cessation of the graft's heart beat. Upon determination of rejection, the abdomen of the recipient was incised and retracted to confirm cessation of the heart beat in the transplanted heart. If cessation of the heart beat was not confirmed the abdomen was surgically closed, and the grafted heart was evaluated daily.
Cardiac allografts were established. Dosing of compounds began on day 0, prior to transplantation and continued through day +10. […] The vehicle control, 10% ethanol/corn oil, was administered s.c., every 12 hours, day 0 through day +10. The antibody, GG5/3 in 0.9% saline, was administered at 3 mg/kg, s.c., on day 0, +3, +7 and +10. All GG5/3 animals received twice daily s.c. injections of 0.9% saline, every 12 hours, throughout day 0 through day +10. The vehicle control, 0.9% saline, was administered daily, s.c., day 0 through day +10. All dosing solutions were formulated daily at a constant dose volume of 5 ml/kg. The site of injection was rotated at each injection through four possible sites: right and left fore flank, right and left rear flank. A total of 28 allografts, amongst 5 groups, were evaluated in the study. Group 1, consisted of 6 animals treated with the monoclonal antibody, GG5/3. […] Allograft survival was evaluated by daily palpation of the transplanted heart through the recipient's flank. Rejection was taken as the day of complete cessation of graft's heart beat. Upon determination of rejection, the abdomen of the recipient was incised to confirm cessation of the heart beat in the transplanted heart. If cessation of the graft's heart beat was not confirmed the abdomen was surgically closed, and the graft was evaluated daily.

[2] = tested on: rat cardiac allografts; assay: Rat cardiac allograft study, Allograft Study 4 (Table 22); settings: s.c., GG5/3 3 mg/kg, compounds 30 mg/kg;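 further: heterotopic abdominal heart transplants from Lewis × Brown Norway F1 donors into male Lewis rats, graft beating checked daily by flank palpation, rejection defined as complete stop of heartbeat, transplant day 0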
Method: Hearts from Lewis X Brown Norway F1 hybrids were transplanted to the abdominal great vessels of Lewis recipients using standard microvascular techniques. Both rat strains were male inbred rats, weighing 200-300 g. Food and water was available at all times except during surgical and dosing procedures. The day of transplantation was noted as day 0. Twelve hours following the last dose approximately 1 ml of blood was collected into lithium/heparin anti-coagulant tubes. If any graft was rejected prior to the last day of dosing, blood samples were taken 12 hours after dosing on the day that graft rejection was noted. All blood samples were centrifuged at 3000 rpm for 10 minutes and the plasma was harvested, frozen on dry ice and stored frozen at −20 C prior to analysis. Allograft survival in the rats was evaluated by daily palpation of the transplanted heart through the recipient's flank. Rejection was taken as the day of complete cessation of the graft's heart beat. Upon determination of rejection, the abdomen of the recipient was incised and retracted to confirm cessation of the heart beat in the transplanted heart. If cessation of the heart beat was not confirmed the abdomen was surgically closed, and the grafted heart was evaluated daily.
Cardiac allografts were established. Dosing of compounds began on day −2, 2 days prior to transplantation and continued through day +10. […] The vehicle control, 0.9% saline, pH adjusted to a value of 5, to match the dosing solution containing the N-[N-(3-pyridinesulfonyl)-L-3,3-dimethyl-4-thiaprolyl]-0-[1-methylpiperazin-4-ylcarbonyl]-L-tyrosine isopropyl ester, was administered via the same route, i.e. every 12 hours, day −2 through day +10. The antibody, GG5/3 in 0.9% saline, was administered at 3 mg/kg, s.c., on day 0, +3, +7 and +10. All GG5/3 animals received twice daily s.c. injections of 0.9% saline, every 12 hours, from day −2 through day +10. The vehicle control, 0.9% saline, was administered daily, s.c., day 0 through day +10. All dosing solutions were formulated daily at a constant dose volume of 5 ml/kg. The site of injection was rotated at each injection through four possible sites: right and left fore flank, right and left rear flank. A total of 21 allografts, amongst 5 groups, were evaluated in the study. […] Two animals within the 0.9% saline group received saline adjusted to a pH a value of 5. (The pH value of the N-[N-(3-pyridinesulfonyl)-L-3,3-dimethyl-4-thiaprolyl]-0-[1-methylpiperazin-4-ylcarbonyl]-L-tyrosine isopropyl ester dosing solution.) The remaining two animals received saline of pH 7. Group 2 consisted of 6 animals treated with the monoclonal antibody, GG5/3. […] Twelve hours following the last dose approximately 1 ml of blood was collected into lithium/heparin anti-coagulant tubes. If any graft was rejected prior to the last day of dosing, blood samples were taken 12 hours after dosing on the day that graft rejection was noted. All samples were centrifuged at 3000 rpm for 10 minutes and the plasma was harvested, frozen on dry ice and stored frozen at −20 C prior to dispatch for analysis. Allograft survival in the rats was evaluated by daily palpation of the transplanted heart through the recipient's flank. Rejection was taken as the day of complete cessation of graft's heart beat. Upon determination of rejection, the abdomen of the recipient was incised to confirm cessation of the heart beat in the transplanted heart. If cessation of the heart beat was not confirmed the abdomen was surgically closed, and the graft was evaluated daily.

CC(C)OC(=O)[C@H](Cc1ccc(OC(=O)N(C)C)cc1)NC(=O)[C@H]1N(S(=O)(=O)c2cnn(C)c2)CSC1(C)C
percent of surviving grafts within a group ([1]; Day 0): 100% | percent of surviving grafts within a group ([1]; Day 1): 100% | percent of surviving grafts within a group ([1]; Day 2): 100% | percent of surviving grafts within a group ([1]; Day 3): 100% | percent of surviving grafts within a group ([1]; Day 4): 100% | percent of surviving grafts within a group ([1]; Day 5): 100% | percent of surviving grafts within a group ([1]; Day 6): 100% | percent of surviving grafts within a group ([1]; Day 7): 100% | percent of surviving grafts within a group ([1]; Day 8): 100% | percent of surviving grafts within a group ([1]; Day 9): 100% | percent of surviving grafts within a group ([1]; Day 10): 83% | percent of surviving grafts within a group ([1]; Day 11): 50% | percent of surviving grafts within a group ([1]; Day 12): 50% | percent of surviving grafts within a group ([1]; Day 13): 33% | percent of surviving grafts within a group ([1]; Day 14): 16% | percent of surviving grafts within a group ([1]; Day 15): 16% | percent of surviving grafts within a group ([1]; Day 16): 0%

CC(C)OC(=O)[C@H](Cc1ccc(OC(=O)N2CCN(C)CC2)cc1)NC(=O)[C@H]1N(S(=O)(=O)c2cccnc2)CSC1(C)C
percent of surviving grafts within a group ([2]; day 0): 100% | percent of surviving grafts within a group ([2]; day 1): 100% | percent of surviving grafts within a group ([2]; day 2): 100% | percent of surviving grafts within a group ([2]; day 3): 100% | percent of surviving grafts within a group ([2]; day 4): 100% | percent of surviving grafts within a group ([2]; day 5): 100% | percent of surviving grafts within a group ([2]; day 6): 100% | percent of surviving grafts within a group ([2]; day 7): 100% | percent of surviving grafts within a group ([2]; day 8): 100% | percent of surviving grafts within a group ([2]; day 9): 83% | percent of surviving grafts within a group ([2]; day 10): 66% | percent of surviving grafts within a group ([2]; day 11): 66% | percent of surviving grafts within a group ([2]; day 12): 66% | percent of surviving grafts within a group ([2]; day 13): 66% | percent of surviving grafts within a group ([2]; day 14): 66% | percent of surviving grafts within a group ([2]; day 15): 66% | percent of surviving grafts within a group ([2]; day 16): 50% | percent of surviving grafts within a group ([2]; day 17): 50% | percent of surviving grafts within a group ([2]; day 18): 50% | percent of surviving grafts within a group ([2]; day 19): 50% | number of surviving grafts ([2]; day 20): 2 | percent of surviving grafts within a group ([2]; day 20): 33% | number of surviving grafts ([2]; day 21): 2 | percent of surviving grafts within a group ([2]; day 21): 33% | number of surviving grafts ([2]; day 22): 2 | percent of surviving grafts within a group ([2]; day 22): 33% | number of surviving grafts ([2]; day 23): 2 | percent of surviving grafts within a group ([2]; day 23): 33% | number of surviving grafts ([2]; day 24): 2 | percent of surviving grafts within a group ([2]; day 24): 33% | number of surviving grafts ([2]; day 25): 2 | percent of surviving grafts within a group ([2]; day 25): 33% | number of surviving grafts ([2]; day 26): 2 | percent of surviving grafts within a group ([2]; day 26): 33% | number of surviving grafts ([2]; day 27): 2 | percent of surviving grafts within a group ([2]; day 27): 33% | number of surviving grafts ([2]; day 28): 2 | percent of surviving grafts within a group ([2]; day 28): 33% | number of surviving grafts ([2]; day 29): 2 | percent of surviving grafts within a group ([2]; day 29): 33% | number of surviving grafts ([2]; day 30): 2 | percent of surviving grafts within a group ([2]; day 30): 33% | number of surviving grafts ([2]; day 31): 1 | percent of surviving grafts within a group ([2]; day 31): 16% | number of surviving grafts ([2]; day 32): 1 | percent of surviving grafts within a group ([2]; day 32): 16% | number of surviving grafts ([2]; day 33): 1 | percent of surviving grafts within a group ([2]; day 33): 16% | number of surviving grafts ([2]; day 34): 1 | percent of surviving grafts within a group ([2]; day 34): 16% | number of surviving grafts ([2]; day 35): 1 | percent of surviving grafts within a group ([2]; day 35): 16% | number of surviving grafts ([2]; day 36): 1 | percent of surviving grafts within a group ([2]; day 36): 16% | number of surviving grafts ([2]; day 37): 1 | percent of surviving grafts within a group ([2]; day 37): 16% | number of surviving grafts ([2]; day 38): 1 | percent of surviving grafts within a group ([2]; day 38): 16% | number of surviving grafts ([2]; day 39): 1 | percent of surviving grafts within a group ([2]; day 39): 16% | number of surviving grafts ([2]; day 40): 1 | percent of surviving grafts within a group ([2]; day 40): 16% | number of surviving grafts ([2]; day 41): 1 | percent of surviving grafts within a group ([2]; day 41): 16% | number of surviving grafts ([2]; day 42): 0 | percent of surviving grafts within a group ([2]; day 42): 0%

CC(C)OC(=O)[C@H](Cc1ccc(OC(=O)N(C)C)cc1)NC(=O)[C@H]1N(S(=O)(=O)c2cccnc2)CSC1(C)C [listing 1 of 2 here]
number of surviving grafts within each group ([1]; Day 0): 6 | number of surviving grafts within each group ([1]; Day 1): 6 | number of surviving grafts within each group ([1]; Day 2): 6 | number of surviving grafts within each group ([1]; Day 3): 6 | number of surviving grafts within each group ([1]; Day 4): 6 | number of surviving grafts within each group ([1]; Day 5): 6 | number of surviving grafts within each group ([1]; Day 6): 6 | number of surviving grafts within each group ([1]; Day 7): 6 | number of surviving grafts within each group ([1]; Day 8): 4 | number of surviving grafts within each group ([1]; Day 9): 2 | number of surviving grafts within each group ([1]; Day 10): 2 | number of surviving grafts within each group ([1]; Day 11): 1 | number of surviving grafts within each group ([1]; Day 12): 0 | number of surviving grafts within each group ([1]; Day 13): 0 | number of surviving grafts within each group ([1]; Day 14): 0 | number of surviving grafts within each group ([1]; Day 15): 0 | number of surviving grafts within each group ([1]; Day 16): 0

CC(C)OC(=O)[C@H](Cc1ccc(OC(=O)N(C)C)cc1)NC(=O)[C@H]1N(S(=O)(=O)c2cccnc2)CSC1(C)C [listing 2 of 2 here]
percent of surviving grafts within a group ([1]; Day 0): 100% | percent of surviving grafts within a group ([1]; Day 1): 100% | percent of surviving grafts within a group ([1]; Day 2): 100% | percent of surviving grafts within a group ([1]; Day 3): 100% | percent of surviving grafts within a group ([1]; Day 4): 100% | percent of surviving grafts within a group ([1]; Day 5): 100% | percent of surviving grafts within a group ([1]; Day 6): 100% | percent of surviving grafts within a group ([1]; Day 7): 100% | percent of surviving grafts within a group ([1]; Day 8): 66% | percent of surviving grafts within a group ([1]; Day 9): 50% | percent of surviving grafts within a group ([1]; Day 10): 50% | percent of surviving grafts within a group ([1]; Day 11): 16% | percent of surviving grafts within a group ([1]; Day 12): 0% | percent of surviving grafts within a group ([1]; Day 13): 0% | percent of surviving grafts within a group ([1]; Day 14): 0% | percent of surviving grafts within a group ([1]; Day 15): 0% | percent of surviving grafts within a group ([1]; Day 16): 0%

CC(C)OC(=O)[C@H](Cc1ccc(OC(=O)N(C)C)cc1)NC(=O)[C@H]1N(S(=O)(=O)c2cccnc2)CSC1(C)C [Example 173]
day by which all grafts rejected ([1]; 30 mg/kg s.c. every 12 h, day 0 through day +10): ≤ 12 days | graft survival (in words) ([1]; compounds 30 mg/kg s.c. every 12 h, GG5/3 3 mg/kg s.c. day 0, +3, +7, +10): prolonged graft survival for a short period
